Test results from the supplement of paper PMC10307832.

Experiments:
Assay in all cases: relative viability (nuclei count vs DMSO), 5 days (fraction); higher = more cells survive
A-427 = tested on: A-427
How it was run: (§1)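 Relative viability was taken as the ratio of nuclei in treated wells to nuclei in vehicle wells. Lung cancer cell lines in 1536-well plates received compounds by pin tool one day after seeding, either one drug alone or a fixed anchor-drug dose plus five library-drug doses (not always all listed) in √10 steps. Nuclei were counted on 4× images after 5 days of treatment, and values are medians of duplicate plates.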

NCI-H460 = tested on: NCI-H460
How it was run: as §1

NCI-H2009 = tested on: NCI-H2009
How it was run: as §1

NCI-H1792 = tested on: NCI-H1792
How it was run: as §1

NCI-H1395 = tested on: NCI-H1395
How it was run: as §1

NCI-H2228 = tested on: NCI-H2228
How it was run: as §1

CAL-12T = tested on: CAL-12T
How it was run: as §1

HARA = tested on: HARA
How it was run: as §1

COR-L 105 = tested on: COR-L 105
How it was run: as §1

NCI-H23 = tested on: NCI-H23
How it was run: as §1

NCI-H1437 = tested on: NCI-H1437
How it was run: as §1

LCLC-103H = tested on: LCLC-103H
How it was run: as §1

HOP-62 = tested on: HOP-62
How it was run: as §1

NCI-H1915 = tested on: NCI-H1915
How it was run: as §1

NCI-H727 = tested on: NCI-H727
How it was run: as §1

EMC-BAC-2 = tested on: EMC-BAC-2
How it was run: as §1

HCC-366 = tested on: HCC-366
How it was run: as §1

HCC-827 = tested on: HCC-827
How it was run: as §1

NCI-H1755 = tested on: NCI-H1755
How it was run: as §1

SK-LU-1 = tested on: SK-LU-1
How it was run: as §1

SW 1573 = tested on: SW 1573
How it was run: as §1

With `O=c1cc(-c2cccc3c2Sc2ccccc2S3)oc(N2CCOCC2)c1` + Cc1nc(NC(=O)N2CCC[C@H]2C(N)=O)sc1-c1ccnc(C(C)(C)C(F)(F)F)c1 [Alpelisib] (partner 2 µM) the relative viability (A-427; first compound 0.08 µM) was 1.04, the relative viability (A-427; first compound 0.253 µM) was 1.04 and the relative viability (A-427; first compound 0.8 µM) was 1.14. It also gave a relative viability (A-427; first compound 2.53 µM) of 0.987, a relative viability (A-427; first compound 8 µM) of 1.05 and a relative viability (NCI-H460; first compound 0.08 µM) of 0.472. It also gave a relative viability (NCI-H460; first compound 0.253 µM) of 0.682, a relative viability (NCI-H460; first compound 0.8 µM) of 0.451 and a relative viability (NCI-H460; first compound 2.53 µM) of 0.57. It also gave a relative viability (NCI-H460; first compound 8 µM) of 0.394, a relative viability (NCI-H2009; first compound 0.08 µM) of 1.18 and a relative viability (NCI-H2009; first compound 0.253 µM) of 1.27. The relative viability (NCI-H2009; first compound 0.8 µM) was 1.18, the relative viability (NCI-H2009; first compound 2.53 µM) was 1.14 and the relative viability (NCI-H2009; first compound 8 µM) was 0.811. For the same compound, the relative viability (NCI-H1792; first compound 0.253 µM) was 0.722, the relative viability (NCI-H1792; first compound 0.8 µM) was 0.741 and the relative viability (NCI-H1792; first compound 2.53 µM) was 0.674. For the same compound, the relative viability (NCI-H1792; first compound 8 µM) was 0.712, the relative viability (NCI-H1395; first compound 0.08 µM) was 1.13 and the relative viability (NCI-H1395; first compound 0.253 µM) was 1.13. For the same compound, the relative viability (NCI-H1395; first compound 0.8 µM) was 1.19, the relative viability (NCI-H1395; first compound 2.53 µM) was 0.907 and the relative viability (NCI-H1395; first compound 8 µM) was 1.05. The relative viability (NCI-H2228; first compound 0.08 µM) was 0.75, the relative viability (NCI-H2228; first compound 0.253 µM) was 0.846 and the relative viability (NCI-H2228; first compound 0.8 µM) was 0.828. For the same compound, the relative viability (NCI-H2228; first compound 2.53 µM) was 0.561, the relative viability (NCI-H2228; first compound 8 µM) was 0.737 and the relative viability (CAL-12T; first compound 0.08 µM) was 1.17. It also gave a relative viability (CAL-12T; first compound 0.253 µM) of 1.28, a relative viability (CAL-12T; first compound 0.8 µM) of 1.56 and a relative viability (CAL-12T; first compound 2.53 µM) of 1.1. For the same compound, the relative viability (CAL-12T; first compound 8 µM) was 0.724, the relative viability (HARA; first compound 0.08 µM) was 0.754 and the relative viability (HARA; first compound 0.253 µM) was 0.748. For the same compound, the relative viability (HARA; first compound 0.8 µM) was 0.719, the relative viability (HARA; first compound 2.53 µM) was 0.81 and the relative viability (HARA; first compound 8 µM) was 0.584. It also gave a relative viability (COR-L 105; first compound 0.08 µM) of 1.1, a relative viability (COR-L 105; first compound 0.253 µM) of 1.13 and a relative viability (COR-L 105; first compound 0.8 µM) of 0.862. It also gave a relative viability (COR-L 105; first compound 2.53 µM) of 0.902, a relative viability (COR-L 105; first compound 8 µM) of 1.12 and a relative viability (NCI-H23; first compound 0.08 µM) of 0.562. It also gave a relative viability (NCI-H23; first compound 0.253 µM) of 0.801, a relative viability (NCI-H23; first compound 0.8 µM) of 0.752 and a relative viability (NCI-H23; first compound 2.53 µM) of 0.603. For the same compound, the relative viability (NCI-H23; first compound 8 µM) was 0.72, the relative viability (NCI-H1437; first compound 0.08 µM) was 1.07 and the relative viability (NCI-H1437; first compound 0.253 µM) was 1.08. It also gave a relative viability (NCI-H1437; first compound 0.8 µM) of 1.15, a relative viability (NCI-H1437; first compound 2.53 µM) of 0.989 and a relative viability (NCI-H1437; first compound 8 µM) of 1.08. The relative viability (LCLC-103H; first compound 0.08 µM) was 0.994, the relative viability (LCLC-103H; first compound 0.253 µM) was 1.06 and the relative viability (LCLC-103H; first compound 0.8 µM) was 0.837. For the same compound, the relative viability (LCLC-103H; first compound 2.53 µM) was 0.971, the relative viability (LCLC-103H; first compound 8 µM) was 0.963 and the relative viability (HOP-62; first compound 0.08 µM) was 0.962. The relative viability (HOP-62; first compound 0.253 µM) was 0.85, the relative viability (HOP-62; first compound 0.8 µM) was 1.01 and the relative viability (HOP-62; first compound 2.53 µM) was 0.908. For the same compound, the relative viability (HOP-62; first compound 8 µM) was 1.18, the relative viability (NCI-H1915; first compound 0.08 µM) was 1.15 and the relative viability (NCI-H1915; first compound 0.253 µM) was 1.12. The relative viability (NCI-H1915; first compound 0.8 µM) was 1.07, the relative viability (NCI-H1915; first compound 2.53 µM) was 0.994 and the relative viability (NCI-H1915; first compound 8 µM) was 1.11. For the same compound, the relative viability (NCI-H727; first compound 0.253 µM) was 0.553, the relative viability (NCI-H727; first compound 2.53 µM) was 0.47 and the relative viability (NCI-H727; first compound 8 µM) was 0.761. For the same compound, the relative viability (EMC-BAC-2; first compound 0.08 µM) was 0.755, the relative viability (EMC-BAC-2; first compound 0.253 µM) was 0.799 and the relative viability (EMC-BAC-2; first compound 0.8 µM) was 0.815. For the same compound, the relative viability (EMC-BAC-2; first compound 2.53 µM) was 0.71, the relative viability (EMC-BAC-2; first compound 8 µM) was 0.856 and the relative viability (HCC-366; first compound 0.08 µM) was 0.345. For the same compound, the relative viability (HCC-366; first compound 0.253 µM) was 0.547, the relative viability (HCC-366; first compound 0.8 µM) was 0.269 and the relative viability (HCC-366; first compound 2.53 µM) was 0.312. It also gave a relative viability (HCC-366; first compound 8 µM) of 0.318, a relative viability (HCC-827; first compound 0.08 µM) of 0.957 and a relative viability (HCC-827; first compound 0.253 µM) of 1.02. For the same compound, the relative viability (HCC-827; first compound 0.8 µM) was 1.01, the relative viability (HCC-827; first compound 2.53 µM) was 0.826 and the relative viability (HCC-827; first compound 8 µM) was 0.979. It also gave a relative viability (NCI-H1755; first compound 0.08 µM) of 0.889, a relative viability (NCI-H1755; first compound 0.253 µM) of 1.22 and a relative viability (NCI-H1755; first compound 0.8 µM) of 0.945. The relative viability (NCI-H1755; first compound 2.53 µM) was 0.925, the relative viability (NCI-H1755; first compound 8 µM) was 0.964 and the relative viability (SK-LU-1; first compound 0.08 µM) was 1.03. It also gave a relative viability (SK-LU-1; first compound 0.253 µM) of 1.12, a relative viability (SK-LU-1; first compound 0.8 µM) of 1.26 and a relative viability (SK-LU-1; first compound 2.53 µM) of 0.991. For the same compound, the relative viability (SK-LU-1; first compound 8 µM) was 0.977, the relative viability (SW 1573; first compound 0.08 µM) was 0.719 and the relative viability (SW 1573; first compound 0.253 µM) was 0.785. The relative viability (SW 1573; first compound 0.8 µM) was 0.667, the relative viability (SW 1573; first compound 2.53 µM) was 0.803 and the relative viability (SW 1573; first compound 8 µM) was 0.657.
